Test results as given in patent publication US12528777B2, “Quinazolinones derivatives for treatment of non-alcoholic fatty liver disease, preparation and use thereof” (Council of Scientific and Industrial Research, priority 2020, dated 2026).
Entries after “also recorded” stand apart in the source; their conditions may differ.

Experiments:
[1] = tested on: ATGL; test: ATGL level in mouse adipose tissue explants (western blot); type: cell-based; details: 24 hours, 100 nM, 500 nM and 1 μM
Protocol: To further strengthen the efficiency of the compounds 9 and 107, primary hepatocytes were isolated from mice and these compounds were treated in a dose dependent manner for 24 hours. Primary hepatocytes and adipose tissue explants were isolated from mice and subjected to compound treatment for 24 hours at the doses of 100 nM, 500 nM and 1 μM. Post cell harvesting, western blot was carried out with the lysate to check the ATGL level. ATGL and COP1 antibodies were used. Actin served the purpose of a loading control.
2. Adipocytes—2-4 months old chow-fed black male mouse (C57bl/6) was sacrificed using chloroform (SRL) and was cleaned with 70% ethanol. Under aseptic conditions, the ventral side of the mouse was cut open, and gonadal (epididymal) white adipose tissue were excised using scissors and suspended in 1×PBS supplemented with 0.1% BSA in a 10 cm culture plate. The attached blood vessels were removed and the adipose tissue was minced as much as possible. The suspension was centrifuged at 50 g for 2 minutes at 4° C. After centrifugation, the adipose tissue pieces suspended at the uppermost layer of the supernatant as emulsion were carefully extracted and plated in DMEM in 35 mm culture dishes. The explant tissue thus obtained was treated with different concentrations of compounds after 6-7 hours.

[2] = molecular target: COP1 (Mus musculus, UniProt Q9R1A8); test: In vivo study: COP1 level in mouse liver; design: from tissue; host or cells: mouse liver (in vivo dosing); species or system C57BL/6 mice; details: 30 mg/kg orally
COP1, sequence (Q9R1A8 whole entry): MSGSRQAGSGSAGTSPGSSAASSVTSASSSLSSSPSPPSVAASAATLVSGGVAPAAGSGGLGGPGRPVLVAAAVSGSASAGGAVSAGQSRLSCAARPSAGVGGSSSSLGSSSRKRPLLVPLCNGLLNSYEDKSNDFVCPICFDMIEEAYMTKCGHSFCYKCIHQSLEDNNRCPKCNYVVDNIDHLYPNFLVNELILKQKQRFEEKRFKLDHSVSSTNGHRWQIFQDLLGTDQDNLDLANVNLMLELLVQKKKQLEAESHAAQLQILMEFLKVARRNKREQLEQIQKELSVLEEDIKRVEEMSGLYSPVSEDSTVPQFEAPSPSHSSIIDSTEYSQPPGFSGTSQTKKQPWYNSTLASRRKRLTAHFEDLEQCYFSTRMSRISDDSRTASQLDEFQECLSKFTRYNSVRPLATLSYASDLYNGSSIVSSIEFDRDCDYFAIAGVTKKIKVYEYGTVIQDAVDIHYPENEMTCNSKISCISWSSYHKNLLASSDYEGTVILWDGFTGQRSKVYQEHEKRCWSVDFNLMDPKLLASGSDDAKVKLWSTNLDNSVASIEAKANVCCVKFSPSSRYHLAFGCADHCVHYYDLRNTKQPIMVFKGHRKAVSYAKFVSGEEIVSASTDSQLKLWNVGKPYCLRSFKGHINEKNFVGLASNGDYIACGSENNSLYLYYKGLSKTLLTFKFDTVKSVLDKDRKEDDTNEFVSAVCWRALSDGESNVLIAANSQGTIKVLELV
Protocol: 6-8 weeks old healthy female C57BL/6 mice (average weight: 25 grams) were taken for the study. These were then divided into three groups comprising of three mice per group (Control, compound 107 fed for 8 hours and compound 107 fed for 16 hours). Mice were fed with 30 mg/kg of compound 107 orally. The compound was dissolved in 25% DMSO and 75% PBS. The control group was fed only with the solvent in which the compound was dissolved. Post 8 hours and 16 hours of feeding, mice were sacrificed and a portion of the excised liver tissue was homogenized in lysis buffer containing protease inhibitor cocktail. The homogenate was centrifuged at 20,000 g for 30 minutes following which the supernatant containing the protein lysate was collected. The lysate was then diluted accordingly and protein estimation was carried out by Bradford Assay. This was followed by Western Blotting wherein the levels of ATGL and COP1 were checked. Actin was used as the loading control.

[3] = tested on: HepG2 cells; test: Confocal microscopy: lipid droplets in oleate induced HepG2 cells; type: cell-based; design: key to Reduction in Lipid Droplets: + = slight or in insignificant; ++ = Moderate; +++ and ++++ = active; +++ and ++++ = active; +++++ = very active; details: for Reduction in Lipid Droplets: oleate induced HepG2 cells, score; for Number of lipid droplets: HepG2 cells, 250 μM oleate induction
Method in brief: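 HepG2 cells were loaded with 250 μM oleate and given compound in DMSO (10 μM screen; 10 nM–5 μM dose series) for 24 h; BSA as negative control. Lipid droplets stained with BODIPY/Hoechst, imaged confocally; mean droplets per cell counted over ~20 cells versus oleate-only cells.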

[4] = tested on: ATGL; test: Reversal of ATGL decrease in COP1 overexpressing HepG2 cells; type: cell-based; details: myc-DDK-COP1, 5 μM, 24 hours
Protocol: COP1 is an E3 ubiquitin ligase with ATGL as one of its targets for ubiquitination and subsequent proteasomal degradation by 26S proteasome. Therefore, it is only legit for ATGL levels to decrease upon COP1 overexpression. To this end, HepG2 cells were transfected with 500 ng of myc-DDK-COP1 plasmid using Lipofectamine 2000 and treated with 5 μM of the compounds 9 and 10 for 24 hours. 48 hours post transfection, cells were harvested and western blot was carried out.

SMILES	ATGL level in mouse adipose explants [1]	COP1 level in liver, 8 hours after feeding [2]	Reduction in Lipid Droplets [3]	Number of lipid droplets [3]	Restoration of ATGL level upon COP1 overexpression [4]
COCCn1c(C)nc2ccc(NC(=O)Nc3cccc(C(C)=O)c3)cc2c1=O [Compound 107, 1-(3-acetylphenyl)-3-(3-(2-methoxyethyl)-2-methyl-4-oxo-3,4-dihydroquinazolin-6-yl)urea]	no such changes were observed; also recorded: this effect was absent; also recorded: did not show any significant changes in ATGL protein	no such effect on COP1; also recorded: no significant impact	++++	–	–
COCCn1cnc2ccc(NC(=O)Nc3cccc(C(C)=O)c3)cc2c1=O [Compound 9, 1-(3-acetylphenyl)-3-(3-(2-methoxyethyl)-4-oxo-3,4-dihydroquinazolin-6-yl)urea]	no such changes were observed; also recorded: this effect was absent; also recorded: did not show any significant changes in ATGL protein	–	++++	decrease in the number of lipid droplets	could restore the reduced ATGL level; also recorded: could restore ATGL to its normal level
CC(=O)c1cccc(NC(=O)Nc2ccc3ncn(CCCN4CCOCC4)c(=O)c3c2)c1 [Compound 139, 1-(3-acetylphenyl)-3-(3-(3-morpholinopropyl)-4-oxo-3,4-dihydroquinazolin-6-yl)urea]	–	–	+++	reduction in lipid droplets	–
